Columns and labels:
[1] = tested on: capsaicin-treated monkey tail (thermal allodynia); assay: Capsaicin-induced thermal allodynia, tail withdrawal latency in monkey model; assay type: in vivo; conditions: 45 min after administration; for Tail Withdrawal Latency Mean ± SEM: capsaicin, cut-off 20 sec
Method: C) Because neuropatic pain is characterized by allodynia for various sensory modalities, also thermal allodynia was investigated in a monkey model where allodynia was induced by the topical application of […] of capsaicin to the surface of the tail. Allodynia was assessed by the latency for withdrawal of the tail following immersion of the tail into water with non-noxious temperatures of either 38° C. or 42° C. (cut-off latency of 20 sec).

[2] = tested on: streptozotocin diabetic rats (tactile allodynia); assay: Tactile allodynia (Von Frey filaments) in streptozotocin diabetic rats; assay type: in vivo, rat
Method: A) Insulin deficient diabetes was induced in rats by a single injection of streptozotocin (50 mg/kg, intraperitoneally). After having confirmed the development of diabetes by established hyperglycemia, determined in blood samples taken from the rats, asimadoline was administered subcutaneously at doses of 1 mg/kg, 5 mg/kg and 15 mg/kg. For comparison, gabapentin, the most recent treatment for diabetic neuropathy, at 50 mg/kg was included. To determine mechanical threshold (tactile allodynia) for foot withdrawal, a series of Von Frey filaments (minimum 0.25 g; maximum 15 g) was applied in sequence to the plantar surface of the right hindpaw with a pressure that causes the filament to buckle, starting with a filament of a buckling weight of 2 g. Absence of a response after 5 seconds was regarded a negative response, and the next heavier filament was applied. Lifting of the paw was recorded as a positive response, and the next lightest filament were applied. This sequence was continued until four measurements have been made after an initial change in the behavior or until five consecutive negative (given the score of 15 g) or four positive (score of 0.25 g) scores were obtained. The resulting sequence of positive and negative scores was used to determine the 50% response threshold.
That the beneficial effects are indeed due to the opioid mechanism of asimadoline can also be seen in Table 1.

[3] = tested on: L5/L6 spinal nerve ligated rats (tactile allodynia); assay: Tactile allodynia (Von Frey filaments) in rats with L5 and L6 spinal nerve ligation; assay type: in vivo, rat
Text: B) Neuropathic pain was induced by surgical […], i.e. the L5 and L6 spinal nerves on one side were tightly ligated in anesthetized rats. After 15 days of recovery, a series of Von Frey filaments (0.4- 15 g) was applied in sequence to the plantar surface of the ligated hind paw to determine the 50% mechanical threshold for foot withdrawal as described before.

Which “Tail Withdrawal Latency Mean ± SEM” value ([1]; 0.01 mg/kg s.c., water 38° C.) does the source give for `CN(C(=O)C(c1ccccc1)c1ccccc1)[C@H](CN1CC[C@H](O)C1)c1ccccc1.Cl` [Asimadoline, N-methyl-N-[(1S)-1-phenyl-2-((3S)-3-hydroxypyrrolidin-1-yl)ethyl]-2,2-diphenylacetamide, hydrochloride] here?
Its value is 8.0 ± 4.5 s.

What about the “Tail Withdrawal Latency Mean ± SEM” value ([1]; 0.01 mg/kg s.c., water 42° C.) of the same compound?
The value was 4.5 ± 2.5 s.

And the “Tail Withdrawal Latency Mean ± SEM” value ([1]; 0.032 mg/kg s.c., water 38° C.)?
The value was 19.6 ± 0.4 s.

What about the “Tail Withdrawal Latency Mean ± SEM” value ([1]; 0.032 mg/kg s.c., water 42° C.) of the same compound?
Its value is 12.8 ± 4.2 s.

What about the “effect on thermal allodynia (in words)” value ([1]; highest dose (0.032 mg/kg s.c.), 38° C. condition) of the same compound?
Its value is “nearly completely abolished thermal allodynia”.

And the “50% Response Threshold Mean ± SEM” value ([2]; diabetic rats, 1 mg/kg s.c., 3 h after administration)?
The value was 2 ± 0.2 g.

And the “50% Response Threshold Mean ± SEM” value ([2]; diabetic rats, 5 mg/kg s.c., 3 h after administration)?
Its value is 6 ± 2.0 g.

And the “50% Response Threshold Mean ± SEM” value ([2]; diabetic rats, 15 mg/kg s.c., 3 h after administration)?
Its value is 9 ± 1.7 g.

And the “effect on tactile allodynia (in words)” value ([2]; diabetic rats, highest dose (15 mg/kg s.c.), 3 h after administration)?
Its value is “nearly completely abolished tactile allodynia”.

And the “anti-allodynic effect after intraplantar injection of kappa antagonist nor-BNI (in words)” value ([2]; diabetic rats, highest dose of asimadoline + nor-BNI i.pl.)?
Its value is “completely abolished”.

What about the “50% Response Threshold Mean ± SEM” value ([2]; diabetic rats, nor-BNI 100 μg i.pl. + Asimadoline 15 mg/kg s.c.) of the same compound?
The value was 3 ± 1.0 g.

What about the “50% Response Threshold Mean ± SEM” value ([3]; 1 mg/kg p.o., 2 h after administration) of the same compound?
Its value is 6.4 ± 0.5 g.

And the “50% Response Threshold Mean ± SEM” value ([3]; 3 mg/kg p.o., 2 h after administration)?
Its value is 10.1 ± 0.6 g.

And the “50% Response Threshold Mean ± SEM” value ([3]; 10 mg/kg p.o., 2 h after administration)?
Its value is 12.0 ± 0.4 g.

And the “effect on tactile allodynia (in words)” value ([3]; highest dose (10 mg/kg p.o.), 2 h after administration)?
The value was “nearly completely abolished tactile allodynia”.

Which results are given for `NCC1(CC(=O)O)CCCCC1` [Gabapentin, reference compound]?
50% Response Threshold Mean ± SEM ([2]; diabetic rats, 50 mg/kg s.c.): 10 ± 1.9 g; 50% Response Threshold Mean ± SEM ([3]; 100 mg/kg p.o.): 12.8 ± 1.6 g

How did the “50% Response Threshold Mean ± SEM” value ([2]; non-diabetic control rats, nor-BNI 100 μg i.pl.) turn out when `Oc1ccc2c3c1O[C@H]1c4[nH]c5c(c4C[C@@]4(O)[C@@H](C2)N(CC2CC2)CC[C@]314)C[C@@]1(O)[C@H]2Cc3ccc(O)c4c3[C@@]1(CCN2CC1CC1)[C@H]5O4` [nor-BNI, nor-binaltorphimine, reference compound] was run?
Its value is 13 ± 1.6 g.

From patent publication US20080090859A1, “Use of Selective Opiate Receptor Modulators In the Treatment Of Neuropathy” (TIOGA PHARMACEUTICALS, INC., priority 2003, published 2008)
